Our source for the Km values is publication PMC5026608 (ACS chemical biology, 2016).

In general, Km refers to the substrate concentration at which the rate is half of its maximum.

For this assay, the target named is hMAT2A (Homo sapiens, UniProt P31153). In words: RP-HPLC of AdoMet product formation. Type of assay: biochemical. The settings on record: read-out: Km μmol L^-1; saturating ATP 2 mM; 25 mM Tris pH 8.0, 10 mM MgCl2, 50 mM KCl; 37 °C; text prints error ± 27.
Chain of hMAT2A (P31153 whole entry): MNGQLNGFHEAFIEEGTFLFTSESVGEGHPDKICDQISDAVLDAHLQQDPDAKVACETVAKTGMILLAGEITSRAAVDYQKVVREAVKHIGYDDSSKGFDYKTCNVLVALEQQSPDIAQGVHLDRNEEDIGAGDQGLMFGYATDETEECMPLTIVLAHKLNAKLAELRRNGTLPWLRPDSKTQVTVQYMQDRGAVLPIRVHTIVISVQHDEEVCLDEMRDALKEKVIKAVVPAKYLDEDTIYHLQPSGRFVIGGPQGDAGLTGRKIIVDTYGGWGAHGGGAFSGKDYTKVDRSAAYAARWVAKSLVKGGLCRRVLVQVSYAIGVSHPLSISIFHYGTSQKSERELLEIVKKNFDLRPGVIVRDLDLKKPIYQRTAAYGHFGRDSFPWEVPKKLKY

Turning to `CSCC[C@H](N)C(=O)O` [LMet], the Km was 397 ± 29 µM.
